Measurements as given in patent publication US20260200980A1, “METHODS AND COMPOSITIONS FOR TREATING OCULAR LESIONS” (priority 2022, published 2026).
Values joined by “and” are separate entries in the source; they are usually repeats but may differ in a detail not shown here. Identical values can stand only once. Like-named read-outs stand apart in the source and are kept apart here. Where no end group is shown, it is not given here.

Assays:
ocular lesion [1] = assay: Lesion size in patients 24 weeks after intravitreal ONL1204; type: in vivo, human; conditions: for % Change in Lesion Growth: week 24, study eye relative to untreated fellow eye; for % Change Based on Sqrt Transformation / Baseline Lesion Size / Week 24 Lesion Size: study eye; for % Change Based on Sqrt Transformation: baseline to week 24, square root of lesion area; for Baseline Lesion Size: baseline prior to treatment
Method: The primary endpoints were the safety profile associated with single and multiple dosing in this study, including: adverse event reporting, clinical evaluations including lesion size and clinical evaluation.
Baseline best lesion size (area in square millimeters) was measured prior to treatment with ONL1204. […] The following doses were evaluated: 50 ug, 100 ug, and 200 ug (micrograms).
(§1) Table 1A and 1B show reduced lesion sizes associated with treated eyes at week 24. Percent (%) change is measured relative the untreated fellow eye. […] Table 3A, 3B and 3C show reduced lesion sizes associated with treated eyes (Tables 3A and 3C) in addition to associated historical lesion growth (Tables 3A and 3B). […] For “% Change Based on Sqrt Transformation” and similar measures, the square root of the lesion area was determined and the % difference between the starting value and the last timepoint was calculated. Percent (%) change is measured relative the untreated fellow eye.

visual function = assay: ETDRS Vision (Letters Read), BCVA, in patients treated with ONL1204; type: in vivo, human
ocular lesion [2] = assay: Lesion size in historical (V1-V3) and treatment phase (V3-V9), 2 injections of ONL1204 3 months apart; type: in vivo, human; conditions: for % Change Nat His Phase (Using Sqrt Transformation): V1 to V3, 24 weeks before treatment; for % Change Tx Phase (Using Sqrt Transformation) / V1 Lesion Size / V3 Lesion Size / V9 Lesion Size: study eye; for % Change Tx Phase (Using Sqrt Transformation): V3 to V9, 24 weeks; for % Change Tx Phase (Using Sqrt Transformation) / V9 Lesion Size: 2 injections 3 months apart; for V1 Lesion Size: visit 1, start of historical phase, before treatment; for V3 Lesion Size: visit 3, end of historical phase, start of treatment; for V9 Lesion Size: visit 9, 24 weeks after first treatment
Method: as §1

male rabbit NaIO3 model = assay: Sodium iodate (NaIO3) challenge study, duration of protection; type: in vivo; conditions: for lesion area vs negative control: NaIO3 challenge Day 4
Method: Animals were anesthetized with isoflurane vapors to effect. […] No reflux was noted on the dosing record.
Animals were anesthetized with isoflurane vapors to effect. […] NaIO3 causes one or more regions of atrophy and depigmentation which creates a window into the choroid.
The resulting area was then measured.

[3] = rabbit, in vivo
Method: Pharmacokinetic analyses were performed on the vitreous humor concentration data.
Seven animals received a repeat IVT dose at 2 mg/mL (0.1 mg/eye) on Day 90.
Vitreous humor, retina, and choroid were collected on days 1, 7, 14, 28, 42, 61, 90, 97, 151, and 168. Eyes were enucleated, snap frozen using liquid nitrogen, and kept on dry ice or frozen at −80° C. until dissected for collection of aqueous humor, vitreous humor, retina, choroid, iris-ciliary body (ICB), and lens.
To homogenize ocular tissue samples, weighed amounts of control bovine vitreous humor, retina, and choroid were homogenized in USA scientific impact resistant microtubes containing 2.8 mm ceramic beads. Unknown rabbit vitreous humor, retina, and choroid samples were homogenized in USA scientific impact resistant microtubes containing 2.8 mm ceramic beads. […]

[4] = minipig, in vivo
Method: Seven animals received a repeat IVT dose at 2 mg/mL (0.1 mg/eye) on Day 90. […] Vitreous humor, retina, and choroid were collected on days 1, 7, 14, 28, and 88.

Substance: HHIYLGAVNYIY-NH2 [ONL1204]
- % Change in Lesion Growth (ocular lesion [1]; 50 ug): −45%
- % Change in Lesion Growth (ocular lesion [1]; 100 ug): −27% and −32%
- % Change in Lesion Growth (ocular lesion [1]; 200 ug): −57% and −53%
- lesion size growth (ocular lesion [1]; all patients, doses 50, 100 and 200 ug, compared to untreated fellow eye): reduction in lesion size growth
- % Change Based on Sqrt Transformation (ocular lesion [1]; 50 ug): 4.14% and 6.95%
- Baseline Lesion Size (ocular lesion [1]; 100 ug intravitreal): 20.1 mm^2 and 24.16 mm^2
- Week 24 Lesion Size (ocular lesion [1]; 100 ug intravitreal): 21.2 mm2 and 27.61 mm2
- % Change Based on Sqrt Transformation (ocular lesion [1]; 100 ug): 2.70% and 6.90%
- Baseline Lesion Size (ocular lesion [1]; 200 ug intravitreal): 9.37 mm^2 and 9.09 mm^2
- Week 24 Lesion Size (ocular lesion [1]; 200 ug intravitreal): 9.81 mm2 and 9.78 mm2
- % Change Based on Sqrt Transformation (ocular lesion [1]; 200 ug): 2.32% and 3.73%
- visual function (e.g., BCVA as measured by letters read) (visual function; eyes having a patchy lesion): improved visual function
- ETDRS Vision (Letters Read) Week 1 (visual function; study eye, 50 μg): 42 Letters Read and 33 Letters Read
- ETDRS Vision (Letters Read) Week 2 (visual function; study eye, 50 μg): 34 Letters Read and 33 Letters Read
- ETDRS Vision (Letters Read) Week 4 (visual function; study eye, 50 μg): 36 Letters Read and 33 Letters Read
- ETDRS Vision (Letters Read) Week 12 (visual function; study eye, 50 μg): 36 Letters Read
- ETDRS Vision (Letters Read) Week 24 (visual function; study eye, 50 μg): 42 Letters Read and 35 Letters Read
- ETDRS Vision (Letters Read) Screening/Baseline (visual function; study eye, 50 μg, before treatment): 23 Letters Read and 26 Letters Read
- ETDRS Vision (Letters Read) Week 1 (visual function; study eye, 100 μg): 13 Letters Read
- ETDRS Vision (Letters Read) Week 2 (visual function; study eye, 100 μg): 13 Letters Read and 19 Letters Read
- ETDRS Vision (Letters Read) Week 12 (visual function; study eye, 100 μg): 15 Letters Read and 27 Letters Read
- ETDRS Vision (Letters Read) Week 24 (visual function; study eye, 100 μg): 15 Letters Read and 24 Letters Read
- ETDRS Vision (Letters Read) Screening/Baseline (visual function; study eye, 100 μg, before treatment): 14 Letters Read and 11 Letters Read
- ETDRS Vision (Letters Read) Week 1 (visual function; study eye, 200 μg): 29 Letters Read and 31 Letters Read
- ETDRS Vision (Letters Read) Week 2 (visual function; study eye, 200 μg): 32 Letters Read and 30 Letters Read
- ETDRS Vision (Letters Read) Week 4 (visual function; study eye, 200 μg): 30 Letters Read and 38 Letters Read
- ETDRS Vision (Letters Read) Week 12 (visual function; study eye, 200 μg): 28 Letters Read and 41 Letters Read
- ETDRS Vision (Letters Read) Week 24 (visual function; study eye, 200 μg): 26 Letters Read and 40 Letters Read
- ETDRS Vision (Letters Read) Baseline (visual function; study eye, 200 μg, baseline visit, on a different day from screening, before treatment): 25 Letters Read
- ETDRS Vision (Letters Read) Screening/Baseline (visual function; study eye, 200 μg, before treatment): 39 Letters Read
- ETDRS Vision (Letters Read) Screening (visual function; study eye, 200 μg, screening visit, on a different day from baseline, before treatment): 19 Letters Read
- % Change Nat His Phase (Using Sqrt Transformation) (ocular lesion [2]; study eye later given 50 ug): 5.31% and 1.38%
- % Change Nat His Phase (Using Sqrt Transformation) (ocular lesion [2]; study eye later given 100 ug): 2.97% and 3.20%
- % Change Tx Phase (Using Sqrt Transformation) (ocular lesion [2]; 50 ug): 3.74% and 0.05%
- V1 Lesion Size (ocular lesion [2]; 50 ug): 12.08 mm^2 and 18.41 mm^2
- V3 Lesion Size (ocular lesion [2]; 50 ug): 13.4 mm^2 and 18.92 mm^2
- V9 Lesion Size (ocular lesion [2]; 50 ug): 14.42 mm^2 and 18.94 mm^2
- % Change Tx Phase (Using Sqrt Transformation) (ocular lesion [2]; 100 ug): 3.37% and 1.39%
- V1 Lesion Size (ocular lesion [2]; 100 ug): 5.64 mm^2 and 7.7 mm^2
- V3 Lesion Size (ocular lesion [2]; 100 ug): 5.98 mm^2 and 8.2 mm^2
- V9 Lesion Size (ocular lesion [2]; 100 ug): 6.39 mm^2 and 8.43 mm^2
- lesion area vs negative control (male rabbit NaIO3 model; 25 ug per eye IVT Day 0): significantly lower than negative control
- lesion area vs negative control (male rabbit NaIO3 model; 100 ug per eye IVT Day 0): significantly lower than negative control
- lesion size vs negative controls and 25 ug group (male rabbit NaIO3 model; 100 ug per eye IVT Day 0, NaIO3 challenge Day 14): significantly smaller lesion size
- lesion size vs negative control animals and 25 ug group (male rabbit NaIO3 model; 100 ug per eye IVT Day 0, NaIO3 challenge Day 28): significantly smaller lesion size
- mean lesion size (male rabbit NaIO3 model; across challenge time points): substantive reduction
- detection in retinal tissue as well as the vitreous humor [3]: detected
- detection in the vitreous humor [3]: detected
- detection in the vitreous humor [4]: detected
